Data from patent US5077286A, “Beta-lactam derivatives of the 4-acylcephem sulphone and 3-acylpenam sulphone-type” (Farmitalia Carlo Erba S.r.l., priority 1988, dated 1991).

How the values were obtained:
[1] = Chemical stability at 37° C., 0.05M pH 7.4 phosphate buffer (HPLC, time course of starting material depletion); format: physicochemical; details: 0.05m phosphate buffer, 5% DMSO, 10 mM initial conc., read-out: Chemical stability t1/2 (converted)
Protocol: (a) Chemical stability at 37° C., 0.05M pH 7.4 phosphate buffer (5% DMSO as solubilizing vehicle) was determined by following the time course of starting material depletion ([…] kinetics; 10 mM initial conc.) by HPLC analysis (stationary phase Whatman Partisphere 5 C18, 110×4.7 mm i.d., mobile phase A, pH 2.5 0.1M phosphate buffer; mobile phase B, 60:40 phase A/MeCN; UV detection at λ=254 nm;

[2] = target: T1, human leukocyte elastase (HLE) (Homo sapiens, UniProt P08246); assay: HLE-inhibition kinetic parameters (fluorescence, release of 7-amino-4-methylcoumarin from peptide substrate); format: biochemical; details: 37° C., 0.027M pH 7.4 phosphate buffer, 1% DMSO, 1% MeCN, NaCl (I=0.15); for Ki: read-out: HLE-inhibition kinetic parameters: Ki^ss (apparent dissociation constant of HLE-inhibitor complex at steady state); for koff: read-out: HLE-inhibition kinetic parameters: Koff (dissociation rate); for kon: read-out: HLE-inhibition kinetic parameters: Kon (rate of formation of the HLE complex)
T1 construct: purchased Calbiochem Lot 702738
T1 sequence (P08246 30-267): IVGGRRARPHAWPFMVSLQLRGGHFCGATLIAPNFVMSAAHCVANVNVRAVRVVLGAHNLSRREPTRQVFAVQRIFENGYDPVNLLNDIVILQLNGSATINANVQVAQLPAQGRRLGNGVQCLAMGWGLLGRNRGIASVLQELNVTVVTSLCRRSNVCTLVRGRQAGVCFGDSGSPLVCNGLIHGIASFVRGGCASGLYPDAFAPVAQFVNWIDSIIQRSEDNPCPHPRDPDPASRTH
Protocol: (b) Kinetic parameters of HLE (Calbiochem. Lot 702738) were determined at 37° C., 0.027M pH 7.4 phosphate buffer, 1% DMSO, 1% MeCN, NaCl (I=0.15), by monitoring the release of 7-amino-4-methylcoumarin (fluorence detection) from N-methoxysuccinyl-alanyl-propyl-valyl-7-amido-4-methylcoumarin as the substrate, according to the equations: [formula] wherein: [P], [I], [S]=product, inhibitor, and substrate concentration
Km=Michaelis constant for the enzyme-substrate pair (independently determined under the same experimental conditions).

SMILES | half-life at 10000 µM [1] | Ki [2] | koff [2] | kon [2]
CO[C@H]1C(=O)N2C(C(=O)C(C)(C)C)=C(COC(C)=O)CS(=O)(=O)[C@H]12 [Compound 51, 3-Acetoxymethyl-4-tert-butylcarbonyl-(7α)-methoxy-3-cephem 1,1-dioxide] | 19.3 h | 11 nM | 0.0026 s⁻¹ | 20000 M⁻¹ s⁻¹
CO[C@H]1C(=O)N2C(C(=O)OC(C)(C)C)=C(COC(C)=O)CS(=O)(=O)[C@H]12 [Reference] | 3.2 h | 18.4 nM | 0.0035 s⁻¹ | 9000 M⁻¹ s⁻¹
